The source of these data is ChEMBL document CHEMBL5506068 (J Med Chem, 2024).

For assay [1], the system named is Mus musculus. The assay can be described thus: Antinociception activity in male Swiss Webster mouse model assessed as increase in maximum possible effect at 10 mg/kg, sc administered as single dose measured after 20 mins in presence of morphine by warm-water tail immersion assay relative to control. The format is functional.
In assay [2] the test system is Mus musculus. Description: Antinociception activity in male Swiss Webster mouse model assessed as increase in maximum possible effect at 10 mg/kg, sc measured after 20 mins by warm-water tail immersion assay relative to control. The format is functional.
The next assay addresses Mu-type opioid receptor (Mus musculus, UniProt P42866). Description: Displacement of [3H]Naloxone from mouse MOR expressed in CHO cells assessed as dissociation constant incubated for […] by radioligand binding assay. The format is cell-based. (Displacement assays read how much labelled ligand stays bound in the presence of the test substance.)
In assay [3] the target is Kappa-type opioid receptor (Mus musculus, UniProt P33534). The assay can be described thus: Displacement of [3H]diprenorphine from mouse KOR expressed in CHO cells assessed as dissociation constant incubated for […] by radioligand binding assay. The format is cell-based.
Assay [4] addresses T1, Delta-type opioid receptor (Homo sapiens, UniProt P41143). Description: Displacement of [3H]diprenorphine from human DOR expressed in CHO cells assessed as dissociation constant incubated for […] by radioligand binding assay. The format is cell-based.
Assay [5] deals with T1, Delta-type opioid receptor. Description: Agonist activity at human DOR expressed in CHO cells increase in [35S]GTPgammaS binding measured after […] by scintillation counter analysis relative to SNC80. The format is functional, cell-based. The settings on record: filed as agonist. (GTPγS resists hydrolysis and so accumulates on activated G proteins.)
Assay [6] addresses T1, Delta-type opioid receptor. Description: Binding affinity to DOR (unknown origin) assessed as dissociation constant.
The subject of assay [7] is Mus musculus. The assay can be described thus: Antinociception activity in male Swiss Webster mouse model assessed as effective dose administered as sc dose measured after 20 mins by warm-water tail immersion assay. The class given is functional.
The target of assay [8] is T1, Delta-type opioid receptor.
For assay [9], the species on record is Mus musculus. The assay can be described thus: Selectivity ratio of Kd for mouse MOR to Kd for mouse KOR.

T1 sequence (P41143 whole entry): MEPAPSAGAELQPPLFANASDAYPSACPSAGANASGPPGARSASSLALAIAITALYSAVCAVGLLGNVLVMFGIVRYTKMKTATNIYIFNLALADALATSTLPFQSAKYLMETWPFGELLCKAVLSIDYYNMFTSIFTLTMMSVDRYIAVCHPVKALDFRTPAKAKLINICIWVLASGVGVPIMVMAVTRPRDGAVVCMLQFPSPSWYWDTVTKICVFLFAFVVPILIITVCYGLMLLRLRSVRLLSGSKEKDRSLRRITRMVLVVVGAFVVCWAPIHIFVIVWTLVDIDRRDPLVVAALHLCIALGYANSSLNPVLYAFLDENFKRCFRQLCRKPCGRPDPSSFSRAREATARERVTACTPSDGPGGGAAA
Sequence of Kappa-type opioid receptor (P33534 whole entry): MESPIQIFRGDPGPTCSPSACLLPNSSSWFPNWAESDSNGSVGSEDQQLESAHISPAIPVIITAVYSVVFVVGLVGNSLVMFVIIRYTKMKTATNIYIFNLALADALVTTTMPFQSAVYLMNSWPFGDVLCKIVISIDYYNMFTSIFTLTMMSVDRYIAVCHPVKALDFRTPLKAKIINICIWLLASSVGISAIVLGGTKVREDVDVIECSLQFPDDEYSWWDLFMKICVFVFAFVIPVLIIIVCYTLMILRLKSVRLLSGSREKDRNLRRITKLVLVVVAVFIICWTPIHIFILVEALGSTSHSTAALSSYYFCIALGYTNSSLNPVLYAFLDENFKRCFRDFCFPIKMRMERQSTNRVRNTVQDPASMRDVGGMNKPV
Sequence of Mu-type opioid receptor (P42866 whole entry): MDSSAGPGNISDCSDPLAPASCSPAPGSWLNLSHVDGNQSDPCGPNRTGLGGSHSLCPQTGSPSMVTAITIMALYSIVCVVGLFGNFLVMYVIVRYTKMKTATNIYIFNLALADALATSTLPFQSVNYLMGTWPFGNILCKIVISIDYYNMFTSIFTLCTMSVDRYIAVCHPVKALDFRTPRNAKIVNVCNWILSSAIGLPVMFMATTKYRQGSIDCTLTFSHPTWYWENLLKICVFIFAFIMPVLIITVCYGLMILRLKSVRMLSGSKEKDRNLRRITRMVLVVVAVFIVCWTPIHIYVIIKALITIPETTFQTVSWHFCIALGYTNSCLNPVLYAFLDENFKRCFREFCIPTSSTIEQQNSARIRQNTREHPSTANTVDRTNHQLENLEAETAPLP

As to `C=CCN1CC[C@]23c4c5ccc(O)c4O[C@H]2C(=O)CC[C@@]3(O)[C@H]1C5` [NALOXONE], the MPE entry with Mus musculus [1] is given as “<=40%”.
On to `Cl.O=C(CCc1ccoc1)N[C@@H]1CC[C@@]2(O)[C@H]3Cc4ccc(O)c5c4[C@@]2(CCN3CC2CC2)[C@H]1O5`, for which the MPE result with Mus musculus [2] is recorded as “<=40%”. For the same compound, on Mu-type opioid receptor, the dissociation constant Kd (commonly the constant that tells how readily two partners part at equilibrium) came to 0.21 nM.
As for `CN(C(=O)/C=C/c1ccco1)[C@@H]1CC[C@@]2(O)[C@H]3Cc4cccc5c4[C@@]2(CCN3CC2CC2)[C@H]1O5.Cl`, the dissociation constant (Kd) in assay [3] is 4.11 nM; in assay [4], 2260 nM; on Mu-type opioid receptor, 215 nM. Besides, the MPE with Mus musculus [2] came out at 40%. In addition, the maximal response (Emax) (commonly the greatest response seen or fitted, relative to the assay's reference) in assay [5] stood at 82.1%.
As for `CN(C(=O)CCc1ccco1)[C@H]1CC[C@@]2(O)[C@H]3Cc4ccc(O)c5c4[C@@]2(CCN3CC2CC2)[C@H]1O5.Cl`, the Kd in assay [3] worked out at 0.12 nM; in assay [4], 0.37 nM; at Mu-type opioid receptor it was 0.15 nM. The MPE in the assay on Mus musculus [2] is 100%.
With `Cl.O=C(CCc1ccoc1)N[C@H]1CC[C@@]2(O)[C@H]3Cc4ccc(O)c5c4[C@@]2(CCN3CC2CC2)[C@H]1O5`, the MPE entry in the assay with Mus musculus [2] is listed as “<=40%”; in the assay on Mus musculus [1], 100%. For the same compound, at Mu-type opioid receptor, the dissociation constant Kd is 0.44 nM.
In the case of `Cl.O=C(CCc1ccoc1)N[C@@H]1CC[C@@]2(O)[C@H]3Cc4cccc5c4[C@@]2(CCN3CC2CC2)[C@H]1O5`, the Kd in assay [3] amounted to 8.37 nM; in assay [4], 749 nM; at Mu-type opioid receptor it was 17.3 nM. For the same compound, in the assay on Mus musculus [2], the MPE turned out to be 40%.
In the case of `CN(C(=O)CCc1ccco1)[C@H]1CC[C@@]2(O)[C@H]3Cc4cccc5c4[C@@]2(CCN3CC2CC2)[C@H]1O5.Cl`, the equilibrium dissociation constant (Kd) in assay [3] amounted to 1 nM; in assay [4], 46.8 nM; at Mu-type opioid receptor, 14.1 nM. In addition, in the assay on Mus musculus [2], the MPE is reported as 40%.
For the compound `CN(C(=O)CCc1ccco1)[C@@H]1CC[C@@]2(O)[C@H]3Cc4ccc(O)c5c4[C@@]2(CCN3CC2CC2)[C@H]1O5.Cl`, the Kd came out at 0.32 nM in assay [3], 7.32 nM in [4] and 0.66 nM on Mu-type opioid receptor. For the same compound, the MPE in the assay with Mus musculus [2] was determined as 100%.
With `CN(C(=O)/C=C/c1ccoc1)[C@H]1CC[C@@]2(O)[C@H]3Cc4ccc(O)c5c4[C@@]2(CCN3CC2CC2)[C@H]1O5.Cl`, the dissociation constant (Kd) in assay [6] worked out at 0.64 nM. The MPE with Mus musculus [2] came out at 100%. Moreover, in the assay with Mus musculus [7], the ED50 (commonly the dose that gives a 50% effect, or the effect in half of the subjects) is 0.037 mg/kg. In addition, the EC50 (in general, the concentration at which the effect is half-maximal) in assay [8] amounted to 2.68 nM.
`CN(C(=O)CCc1ccoc1)[C@H]1CC[C@@]2(O)[C@H]3Cc4cccc5c4[C@@]2(CCN3CC2CC2)[C@H]1O5.Cl`: the Kd was 0.48 nM in assay [3], 48.6 nM in assay [4] and 7.74 nM on Mu-type opioid receptor. Also, the MPE with Mus musculus [2] was 80%.
`Cl.O=C(/C=C/c1ccco1)N[C@H]1CC[C@@]2(O)[C@H]3Cc4ccc(O)c5c4[C@@]2(CCN3CC2CC2)[C@H]1O5`: the values for the Kd (in assay [3]; in assay [4]; on Mu-type opioid receptor) were 1.08 nM, 8.75 nM and 0.53 nM, respectively. For the same compound, the MPE in the assay with Mus musculus [2] worked out at 100%.
For `CN(C(=O)CCc1ccco1)[C@@H]1CC[C@@]2(O)[C@H]3Cc4cccc5c4[C@@]2(CCN3CC2CC2)[C@H]1O5.Cl`, the Kd in assay [3] worked out at 50.4 nM; in [4] it was 532 nM; at Mu-type opioid receptor, 93.6 nM. For the same compound, the MPE in the assay on Mus musculus [2] came out at 40%.
Turning to `Cl.O=C(CCc1ccoc1)N[C@H]1CC[C@@]2(O)[C@H]3Cc4cccc5c4[C@@]2(CCN3CC2CC2)[C@H]1O5`, the Kd in assay [3] stood at 161 nM; in assay [4], 154 nM; at Mu-type opioid receptor, 54.5 nM. Further, the values for the MPE entry with Mus musculus [2] and in the assay with Mus musculus [1] were “<=40%” and 80%, respectively. Moreover, the Ratio in the assay listed under Mus musculus [9] stood at 0. This compound registered an Emax in assay [5] of 93.1%.
On to `CN(C(=O)CCc1ccoc1)[C@@H]1CC[C@@]2(O)[C@H]3Cc4ccc(O)c5c4[C@@]2(CCN3CC2CC2)[C@H]1O5.Cl`, for which the equilibrium dissociation constant (Kd) was 0.28 nM in [3], 8.42 nM in assay [4] and 0.53 nM at Mu-type opioid receptor. Also, the MPE with Mus musculus [2] is reported as 100%.
On to `Cl.O=C(/C=C/c1ccco1)N[C@@H]1CC[C@@]2(O)[C@H]3Cc4cccc5c4[C@@]2(CCN3CC2CC2)[C@H]1O5`, for which the dissociation constant (Kd) in assay [3] worked out at 7.03 nM; in [4], 551 nM; on Mu-type opioid receptor it was 42.4 nM. For the same compound, the MPE result is on record as “<=40%” in the assay with Mus musculus [2] and 100% in the assay with Mus musculus [1]. The compound also yielded an Emax in assay [5] of 81%.
For the compound `Cl.O=C(/C=C/c1ccco1)N[C@@H]1CC[C@@]2(O)[C@H]3Cc4ccc(O)c5c4[C@@]2(CCN3CC2CC2)[C@H]1O5`, the Kd amounted to 0.17 nM in assay [3], 12.8 nM in assay [4] and 0.3 nM at Mu-type opioid receptor. Besides, the MPE with Mus musculus [2] is reported as 80%.
For the compound `Cl.O=C(CCc1ccco1)N[C@@H]1CC[C@@]2(O)[C@H]3Cc4cccc5c4[C@@]2(CCN3CC2CC2)[C@H]1O5`, the Kd in assay [3] is 23.6 nM; in [4], 800 nM; at Mu-type opioid receptor it was 27.5 nM. For the same compound, in the assay on Mus musculus [2], the MPE is reported as 40%.
`CN(C(=O)CCc1ccoc1)[C@H]1CC[C@@]2(O)[C@H]3Cc4ccc(O)c5c4[C@@]2(CCN3CC2CC2)[C@H]1O5.Cl`: the Kd was 0.13 nM in assay [3], 0.59 nM in [4] and 0.18 nM at Mu-type opioid receptor. Also, the MPE in the assay with Mus musculus [2] came to 40%.
`Cl.O=C(/C=C/c1ccco1)N[C@H]1CC[C@@]2(O)[C@H]3Cc4cccc5c4[C@@]2(CCN3CC2CC2)[C@H]1O5`: the dissociation constant (Kd) in assay [3] came to 249 nM; in assay [4], 456 nM; on Mu-type opioid receptor, 107 nM. For the same compound, the MPE result is on record as “<=40%” with Mus musculus [2] and 100% in the assay on Mus musculus [1]. For the same compound, in the assay listed under Mus musculus [9], the Ratio turned out to be 0.
For `Cl.O=C(CCc1ccco1)N[C@@H]1CC[C@@]2(O)[C@H]3Cc4ccc(O)c5c4[C@@]2(CCN3CC2CC2)[C@H]1O5`, the figures for the Kd (in assay [3]; in assay [4]; on Mu-type opioid receptor) were 0.61 nM, 33 nM and 0.28 nM, respectively. Further, the MPE result in the assay with Mus musculus [2] was “<=40%”; with Mus musculus [1], 40%.
For `CN(C(=O)CCc1ccoc1)[C@@H]1CC[C@@]2(O)[C@H]3Cc4cccc5c4[C@@]2(CCN3CC2CC2)[C@H]1O5.Cl`, in that order: 34.5 nM, 891 nM, 43.8 nM, “<=40%” and 100%.
With `Cl.O=C(CCc1ccco1)N[C@H]1CC[C@@]2(O)[C@H]3Cc4cccc5c4[C@@]2(CCN3CC2CC2)[C@H]1O5`, the dissociation constant (Kd) in assay [3] stood at 73.8 nM; in assay [4] it was 90.2 nM; on Mu-type opioid receptor, 53.1 nM. In addition, the MPE result in the assay with Mus musculus [2] is given as “<=40%”; in the assay with Mus musculus [1] it was 80%.
Turning to `CN(C(=O)/C=C/c1ccco1)[C@H]1CC[C@@]2(O)[C@H]3Cc4cccc5c4[C@@]2(CCN3CC2CC2)[C@H]1O5.Cl`, the figures for the dissociation constant (Kd) (in [3]; in [4]; on Mu-type opioid receptor) were 0.62 nM, 68.4 nM and 16.8 nM, respectively. For the same compound, in the assay on Mus musculus [2], the MPE was 80%. The same compound gave a maximal effect (Emax) in [5] of 102%.
For `Cl.O=C(CCc1ccco1)N[C@H]1CC[C@@]2(O)[C@H]3Cc4ccc(O)c5c4[C@@]2(CCN3CC2CC2)[C@H]1O5`, in the assay with Mus musculus [2], the MPE entry is “<=40%”. Further, the Kd at Mu-type opioid receptor is 0.72 nM.
